This is an account of results in patent US20060134774A1, “Detection of protease enzymes” (Marligen Biosciences, Inc., priority 2002, published 2006).

Common to all, as to type: cell-based
Test [1] has as its target T1, caspase-7 (Homo sapiens, UniProt P55210).
T1 construct: endogenous in cells; host or cells: human myeloma cell line KAS
T1 sequence (P55210 24-198 limits assumed): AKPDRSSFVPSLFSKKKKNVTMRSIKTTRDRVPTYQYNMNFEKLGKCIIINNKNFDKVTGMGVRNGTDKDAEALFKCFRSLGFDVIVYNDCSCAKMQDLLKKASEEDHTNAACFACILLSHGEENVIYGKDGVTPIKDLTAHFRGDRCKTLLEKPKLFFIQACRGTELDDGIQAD
T1 sequence (P55210 207-303 limits assumed): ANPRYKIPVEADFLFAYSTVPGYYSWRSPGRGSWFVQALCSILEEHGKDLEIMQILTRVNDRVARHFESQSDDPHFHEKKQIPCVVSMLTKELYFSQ
Briefly: Competitive multiplex inhibitor assay, caspase-7. To be noted: myeloma cell line Kas, 8 hours camptothecin + biotin-DEVD-FMK. From the text:
(§1) In another aspect of the invention a labeled inhibitor and a non-labeled inhibitor are both added to the sample. The non-labeled inhibitor competes with the labeled inhibitor for binding to proteases. With this mode of the invention, new inhibitors may be screened for specificity and the binding constants of new inhibitors may be determined by determining the amount of unlabeled inhibitor necessary to reduce the binding of the labeled inhibitor by a certain amount. Using the methods described in example 2 above Luminex bead sets (colors) 27, 29, and 31 are coupled to antibodies for caspase-3, caspase-7, and caspase 9 respectively. Immediately before using, beads are vortexed for 30 seconds and sonicated for 2 minutes to disperse. Beads are then mixed to provide a 1000 bead/ul (each color) suspension with equivalent representation of each bead set. Cell lysate is prepared from the myeloma cell line Kas as described in Example 1 with the exception that an additional portion of cells is treated for 8 hours with camptothecin, the biotinylated caspase inhibitor biotin-DEVD-FMK and an equal amount of an experimental caspase inhibitor called Mx435. The MX435 inhibitor is not labeled with biotin, and therefore, it competes with the labeled inhibitor for binding to each caspase. […] The presence of labeled caspase enzymes on bead surfaces is detected using the Luminex 100 instrumentation. […]

In test [2] the target is T1, caspase-7. As to the kind of experiment: Multiplex caspase assay (antibody-coated bead array), caspase-7. The conditions noted are these: myeloma cell line Kas, 8 hours camptothecin + biotin-DEVD-FMK vs. biotin-DEVD-FMK alone. As to the method:
(§2) Using the method described in example 1 above Luminex bead sets (colors) 27, 29, and 31 are coupled to antibodies for caspase-3, caspase-7, and caspase 9 respectively. Immediately before using, beads are vortexed for 30 seconds and sonicated for 2 minutes to disperse. Beads are then mixed to provide a 1000 bead/ul (each color) suspension with equivalent representation of each bead set. Cell lysate was prepared from myeloma cell line Kas as describe in example 1. One culture was treated with biotinylated caspase inhibitor biotin-DEVD-FMK for 8 hours and a second culture was treated for 8 hours with the apoptosis inducer camptothecin and biotinylated caspase inhibitor, biotin-DEVD-FMK. A portion of the multiplex bead suspension (2 ul) was incubated with 50 ul of each sample of cell extract diluted to 10 ug/ml in assay buffer (50 mM Tris pH 7.5, 100 mM NaCl, 0.05% tween-20 and 0.1% BSA). Following a 1 hour incubation while shaking in the dark, beads are washed with 100 ul of assay buffer using a filterplate comprising a 1.2 micron PVDF membrane (Millipore). Beads are resuspended in 50 ul of assay buffer containing 2 ug/ml streptavidin-PE conjugate (Pierce) and shaken in the dark for an additional 30 minutes. […] The presence of labeled caspase enzymes on bead surfaces was detected using the Luminex 100 instrumentation. […]

Test [3] deals with T2, caspase 9 (Homo sapiens, UniProt P55211).
T2 construct: endogenous in cells; host or cells: human myeloma cell line KAS
T2 sequence (P55211 1-416): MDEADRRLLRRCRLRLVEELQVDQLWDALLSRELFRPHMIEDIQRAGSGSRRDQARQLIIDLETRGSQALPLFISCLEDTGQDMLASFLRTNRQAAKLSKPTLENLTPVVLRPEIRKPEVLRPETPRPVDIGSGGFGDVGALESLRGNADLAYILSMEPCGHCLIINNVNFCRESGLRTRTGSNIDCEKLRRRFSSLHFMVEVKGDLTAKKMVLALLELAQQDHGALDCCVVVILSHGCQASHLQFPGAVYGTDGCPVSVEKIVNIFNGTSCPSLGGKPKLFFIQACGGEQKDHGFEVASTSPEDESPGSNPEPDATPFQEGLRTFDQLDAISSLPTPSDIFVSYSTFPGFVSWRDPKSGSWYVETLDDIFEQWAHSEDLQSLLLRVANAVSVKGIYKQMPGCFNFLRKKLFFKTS
As to the kind of experiment: Competitive multiplex inhibitor assay, caspase 9. The conditions noted are these: myeloma cell line Kas, 8 hours camptothecin + biotin-DEVD-FMK.
Excerpt: as §1

The target in test [4] is T2, caspase 9. Briefly: Multiplex caspase assay (antibody-coated bead array), caspase 9. The conditions noted are these: myeloma cell line Kas, 8 hours camptothecin + biotin-DEVD-FMK vs. biotin-DEVD-FMK alone. The protocol:
as §2

Test [5] deals with T3, caspase-3 (Homo sapiens, UniProt P42574).
T3 construct: endogenous in cells; host or cells: human myeloma cell line KAS
T3 sequence (P42574 29-175 limits assumed): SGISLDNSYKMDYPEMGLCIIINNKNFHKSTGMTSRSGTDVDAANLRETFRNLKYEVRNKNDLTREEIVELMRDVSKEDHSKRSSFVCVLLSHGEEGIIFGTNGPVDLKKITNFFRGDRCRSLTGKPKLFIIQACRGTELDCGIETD
T3 sequence (P42574 176-277 limits assumed): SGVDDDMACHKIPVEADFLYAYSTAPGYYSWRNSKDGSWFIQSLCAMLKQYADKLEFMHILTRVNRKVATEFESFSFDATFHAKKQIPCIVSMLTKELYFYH
Briefly: Competitive multiplex inhibitor assay, caspase-3. To be noted: myeloma cell line Kas, 8 hours camptothecin + biotin-DEVD-FMK.
Excerpt: as §1

In test [6] the target is T3, caspase-3. Briefly: Multiplex caspase assay (antibody-coated bead array), caspase-3. The conditions noted are these: myeloma cell line Kas, 8 hours camptothecin + biotin-DEVD-FMK vs. biotin-DEVD-FMK alone. As to the method:
as §2

Test [7] addresses T3, caspase-3. As to the kind of experiment: Single-plex assay for active caspase-3 (bead capture of caspase-3/biotin-DEVD-FMK complex from treated cells). The conditions noted are these: human myeloma cell line KAS, 8 hours, 5 uM camptothecin with 1 uM biotin-DEVD-FMK, vs. culture with inhibitor only. As to the method:
Preparation of Amine-Reactive Beads
Luminex beads were dispersed by vortexing for 15 seconds followed by sonication in a water bath for 2 minutes. To wash, beads were pelleted by centrifugation for 2 minutes at 12,000×g in a microcentrifuge and then resuspended in 100 ul of water. Beads were pelleted again, resuspended in 80 ul of activation buffer (100 mM sodium phosphate, monobasic pH 6.3), vortexed briefly and sonicated for 30 seconds. Reactive n-hydroxysuccinimide (NHS) esters on the bead surface were prepared by adding 10 ul of 50 mg/ml Sulfo-NHS solution (Pierce, Rockland, Ill.) and 10 ul of 50 mg/ml 1-Ethyl-3-[3-dimethylaminopropyl]carbodiimide Hydrochloride (EDC) to the bead suspension, briefly vortexing, and rotating for 20 minutes in the dark. […]
Human myeloma cell line KAS was cultured in RPMI+10% FBS at 37° C. in the presence of 5% CO2. […] After three washes, the cell pellet was vortexed in lysis buffer containing 50 mM Tris-HCl pH 7.5, 150 mM NaCl, 1 mM EDTA, 0.5% NP40, 0.5% Triton X-100 and protease inhibitors (5 ug/ml leupeptin, 2 ug/ml pepstatin A, 1 mM PMSF (phenyl methyl sulfonyl […]). Lysates were stored overnight at −80° C., thawed on ice, vortexed, and spun at 4° C. for 1 hour at 12,000×g in a micro-centrifuge. Protein concentrations in the cleared supernatants were determined spectrophotometrically using Bradford reagent prior to storage at −80° C. […]

Regarding `CC[C@@]1(O)C(=O)OCc2c1cc1n(c2=O)Cc2cc3ccccc3nc2-1` [camptothecin], the “induction of caspase 7 activity by camptothecin (median fluorescent intensity, FIG. 12)” value on caspase-7 [1] was “induced”. For the same molecule, the “induction of caspase 7 activity (median fluorescent intensity, FIG. 11)” value on caspase-7 [2] is recorded as “induced”. On caspase 9 [3], the “induction of caspase 9 activity by camptothecin (median fluorescent intensity, FIG. 12)” value was “induced”. In addition, the “induction of caspase 9 activity (median fluorescent intensity, FIG. 11)” value at caspase 9 [4] is “induced the least”. For the same molecule, at caspase-3 [5], the “induction of caspase 3 activity by camptothecin (median fluorescent intensity, FIG. 12)” value is on record as “induced”. Moreover, the “induction of caspase 3 activity (median fluorescent intensity, FIG. 11)” value at caspase-3 [6] is reported as “induced the most”. Besides, the “caspase 3 activity: signal of biotin-labeled inhibitor bound to captured caspase 3 (FIG. 10)” value on caspase-3 [7] is “induced”.
